Test system: OVCAR3 tumor
Experiment: OVCAR3 human ovarian cancer subcutaneous transplant tumor model
Type: in vivo, mouse
Conditions: oral, QD, 28 days, balb/c nude mice
Excerpt: • I. Experimental objective: evaluation of the pharmacological effects of the reference compounds and the compounds of the present disclosure in the OVCAR3 human ovarian cancer subcutaneous transplant tumor model. • II. Experimental material: experimental female balb/c nude mice, 6-8-week old or 18-20 g, provided by Vital River Laboratory Animal Technology Co., Ltd. • III. Experimental method: Experimental animals were housed within a specific pathogen-free animal barrier facility, and the experiment was started 3 days after the animals were acclimated. The human ovarian cancer OVCAR3 tumor cells were cultured in vitro as monolayers in RPMI 1640 complete medium (supplemented with a final concentration of 20% fetal bovine serum, 1% penicillin-streptomycin dual antibiotics, and 0.01 mg/ml insulin) at 37° C. in an atmosphere containing 5% CO2. The tumor cells were routinely passaged 2-3 times per week, and the cells in the exponential growth phase were collected and counted for tumor cell inoculation. 10×10^6 OVCAR3 tumor cells were resuspended in 0.1 m1 PBS and mixed with 0.1 m1 matrigel and then subcutaneously inoculated into the right flank of each mouse to establish tumors. When the mean tumor volume of the tumor-bearing mice grew to around 100 mm^3, the appropriate tumor-bearing mice were selected for randomization and the groups were set as: blank control groups, reference compound groups, and groups of compounds of the present disclosure. Vehicles were administered orally in the blank control group, and the corresponding compounds were administered orally in the other groups for 28 days. Tumor volumes and animal weights were monitored […], twice weekly. This experiment examined the inhibitory effect of the reference compound and the compound of the present disclosure on the growth of OVCAR3 human ovarian cancer cells by monitoring the size of the tumor volume of each group after administration of the compounds.

SMILES	inhibition rate on OVCAR3 tumor growth (10 mg/kg)	inhibition rate on OVCAR3 tumor growth (30 mg/kg)
COc1ccc(NC(=O)c2ccc(NS(=O)(=O)CCO)cc2N2CCC(=C(F)F)CC2)c2cc3n(c12)CC(C)(C)OC3 [Example 465, 2-(4-(difluoromethylene)piperidin-1-yl)-4-((2-hydroxyethyl)sulfonamido)-N-(6-methoxy-3,3-dimethyl-3,4-dihydro-1H-[1,4]oxazinyl[4,3-a]indol-9-yl)benzamide]	60%-70%	–
CC1(C)Cn2c(cc3c(NC(=O)c4ccc(NS(=O)(=O)CCO)cc4N4CCC5(CC4)CC5)cccc32)CO1 [Example 371, N-(3,3-dimethyl-3,4-dihydro-1H-[1,4]oxazino[4,3-a]indol-9-yl)-4-(2-hydroxyethylsulfonamido)-2-(6-azaspiro[2.5]octan-6-yl)benzamide]	94%-98%	about 110%
COc1ccc(NC(=O)c2ccc(NS(=O)(=O)CCO)cc2N2CCC3(CC2)CC3)c2cc3n(c12)CC(C)(C)OC3 [Example 455, 4-((2-hydroxyethyl)sulfonamido)-N-(6-methoxy-3,3-dimethyl-3,4-dihydro-1H-[1,4]oxazinyl[4,3-a]indol-9-yl)-2-(6-azaspiro[2.5]oct-6-yl)benzamide]	94%-98%	–
